Patent US20060135773A1, “Trisubstituted nitrogen modulators of tyrosine phosphatases” (priority 2004, published 2006)

Target: T1, PTP-1B (Homo sapiens, UniProt P18031)
T1 construct: PTP-1B (purified, 1 mg/mL) as a 1:250 dilution
T1 sequence (P18031 1-321 limits assumed): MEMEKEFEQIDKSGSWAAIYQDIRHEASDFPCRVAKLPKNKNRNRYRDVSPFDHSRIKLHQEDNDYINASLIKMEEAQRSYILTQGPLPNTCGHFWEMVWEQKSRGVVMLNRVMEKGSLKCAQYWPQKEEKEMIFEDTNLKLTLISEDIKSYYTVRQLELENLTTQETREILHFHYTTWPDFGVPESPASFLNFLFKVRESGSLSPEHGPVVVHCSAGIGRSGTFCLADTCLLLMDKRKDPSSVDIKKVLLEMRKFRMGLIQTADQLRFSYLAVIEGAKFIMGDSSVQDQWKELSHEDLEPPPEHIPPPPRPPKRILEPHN
Test: pNPP tyrosine phosphatase inhibition assay, PTP-1B
Assay type: biochemical
Conditions: pNPP assay, PTP-1B; read-out: Activity Class (IC50 ranges)
How it was run: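 Test compounds were screened at two final levels, 31.3 and 10 µM, against 4 µg/mL purified PTP-1B. The substrate was 10 mM p-nitrophenyl phosphate, with incubation for 10 min at 30°C before a K2CO3 quench. Activity was taken from A405.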

Row | IC50 | Compound
1 | 2.5 to 25 µM | CS(=O)(=O)N(Cc1ccc(C(F)(F)P(=O)(O)O)cc1)Cc1ccc(C(F)(F)P(=O)(O)O)cc1 [Compound 131, {[4-({[4-(Difluoro-phosphono-methyl)-benzyl]-methanesulfonyl-amino}-methyl)-phenyl]-difluoro-methyl}-phosphonic acid]
2 | 0.1 to 0.249 µM | COC(=O)c1ccc(CN(Cc2ccc(C(F)(F)P(=O)(O)O)c(Br)c2)S(=O)(=O)c2ccccc2Cl)cc1 [Compound 104, 4-{[[3-Bromo-4-(difluoro-phosphono-methyl)-benzyl]-(2-chloro-benzenesulfonyl)-amino]-methyl}-benzoic acid methyl ester]
3 | 0.25 to 0.499 µM | O=P(O)(O)C(F)(F)c1ccc(CN(Cc2ccc(Cl)c(Cl)c2)S(=O)(=O)c2ccccn2)cc1Br [Compound 100, [(2-Bromo-4-{[(3,4-dichloro-benzyl)-(pyridine-2-sulfonyl)-amino]-methyl}-phenyl)-difluoro-methyl]-phosphonic acid]
4 | 0.1 to 0.249 µM | COc1ccccc1S(=O)(=O)N(Cc1ccc(C(F)(F)P(=O)(O)O)c(Cl)c1)Cc1ccccc1-c1ccncc1 [Compound 180, [(2-Chloro-4-{[(2-methoxy-benzenesulfonyl)-(2-pyridin-4-yl-benzyl)-amino]-methyl}-phenyl)-difluoro-methyl]-phosphonic acid]
5 | 0.25 to 0.499 µM | COC(=O)c1cccc(-c2ccc(CCN(Cc3ccc(C(F)(F)P(=O)(O)O)c(Cl)c3)S(=O)(=O)c3ccccc3OC)cc2)c1 [Compound 182, 4′-{2-[[3-Chloro-4-(difluoro-phosphono-methyl)-benzyl]-(2-methoxy-benzenesulfonyl)-amino]-ethyl}-biphenyl-3-carboxylic acid methyl ester]
6 | 0.25 to 0.499 µM | COc1ccccc1S(=O)(=O)N(Cc1ccc(S(C)(=O)=O)cc1)Cc1ccc(C(F)(F)P(=O)(O)O)c(Cl)c1 [Compound 137, [(2-Chloro-4-{[(4-methanesulfonyl-benzyl)-(2-methoxy-benzenesulfonyl)-amino]-methyl}-phenyl)-difluoro-methyl]-phosphonic acid]
7 | 0.25 to 0.499 µM | CCOC(=O)c1cc(-c2ccc(CN(Cc3ccc(C(F)(F)P(=O)(O)O)c(Cl)c3)S(=O)(=O)c3ccccc3OC)cc2)ccc1Cl [Compound 175, 4-Chloro-4′-{[[3-chloro-4-(difluoro-phosphono-methyl)-benzyl]-(2-methoxy-benzenesulfonyl)-amino]-methyl}-biphenyl-3-carboxylic acid ethyl ester]
8 | > 25 µM | COc1ccccc1S(=O)(=O)N(Cc1ccc(C(O)C(=O)O)cc1)Cc1ccc(S(C)(=O)=O)cc1 (centres unmarked) [Compound 127, Hydroxy-(4-{[(4-methanesulfonyl-benzyl)-(2-methoxy-benzenesulfonyl)-amino]-methyl}-phenyl)-acetic acid]
9 | 0.1 to 0.249 µM | COc1ccccc1S(=O)(=O)N(Cc1ccc(C(F)(F)P(=O)(O)O)c(Cl)c1)Cc1ccccc1Oc1ccccc1 [Compound 173, [(2-Chloro-4-{[(2-methoxy-benzenesulfonyl)-(2-phenoxy-benzyl)-amino]-methyl}-phenyl)-difluoro-methyl]-phosphonic acid]
10 | 0.1 to 0.249 µM | N#Cc1cccc(-c2ccc(CN(Cc3ccc(C(F)(F)P(=O)(O)O)c(Cl)c3)S(=O)(=O)c3ccccc3Cl)cc2)c1 [Compound 163, [(2-Chloro-4-{[(2-chloro-benzenesulfonyl)-(3′-cyano-biphenyl-4-ylmethyl)-amino]-methyl}-phenyl)-difluoro-methyl]-phosphonic acid]
11 | > 25 µM | CCNc1ccc(S(=O)(=O)C(F)(F)F)cc1NC(=O)c1ccc(C)c(S(=O)(=O)N2CCCCC2)c1 [Compound 106, N-(2-Ethylamino-5-trifluoromethanesulfonyl-phenyl)-4-methyl-3-(piperidine-1-sulfonyl)-benzamide]
12 | 0.25 to 0.499 µM | O=P(O)(O)C(F)(F)c1ccc(CN(Cc2ccc(C(F)(F)P(=O)(O)O)cc2)S(=O)(=O)c2ccccc2)cc1 [Compound 60, {[4-({Benzenesulfonyl-[4-(difluoro-phosphono-methyl)-benzyl]-amino}-methyl)-phenyl]-difluoro-methyl}-phosphonic acid]
13 | < 0.099 µM | O=C(O)c1ccc(CN(Cc2ccc(C(F)(F)P(=O)(O)O)c(Br)c2)S(=O)(=O)c2ccccc2Cl)cc1 [Compound 107, 4-{[[3-Bromo-4-(difluoro-phosphono-methyl)-benzyl]-(2-chloro-benzenesulfonyl)-amino]-methyl}-benzoic acid]
14 | > 25 µM | COc1ccccc1S(=O)(=O)N(Cc1ccc(-c2ccc(O)c(C(=O)O)c2)cc1)Cc1ccc(OCC(=O)O)c(Cl)c1 [Compound 222, 4′-{[(4-Carboxymethoxy-3-chloro-benzyl)-(2-methoxy-benzenesulfonyl)-amino]-methyl}-4-hydroxy-biphenyl-3-carboxylic acid]
15 | > 25 µM | COc1ccccc1S(=O)(=O)N(Cc1ccc(C#N)cc1)Cc1ccc(C=CC(=O)O)c(Br)c1 [Compound 120, 3-{2-Bromo-4-[N-(4-cyanobenzyl)-N-(2-methoxy-benzenesulfonyl)aminomethyl]-phenyl}-acrylic acid]
16 | > 25 µM | COc1ccc(OC)c(S(=O)(=O)N(Cc2ccc(C(O)CO)cc2)Cc2ccc(S(C)(=O)=O)cc2)c1 (centres unmarked) [Compound 119, N-[4-(1,2-Dihydroxy-ethyl)-benzyl]-N-(4-methanesulfonyl-benzyl)-2,5-dimethoxy-benzenesulfonamide]
17 | 0.25 to 0.499 µM | COC(=O)c1ccc(CN(Cc2ccc(C(F)(F)P(=O)(O)O)c(Cl)c2)S(=O)(=O)c2ccccc2)cc1 [Compound 234, 4-({Benzenesulfonyl-[3-chloro-4-(difluoro-phosphono-methyl)-benzyl]-amino}-methyl)-benzoic acid methyl ester]
18 | 0.1 to 0.249 µM | N#Cc1cccc(-c2ccc(CN(Cc3ccc(C(F)(F)P(=O)(O)O)c(Cl)c3)S(=O)(=O)c3ccc(F)cc3Cl)cc2)c1 [Compound 162, [(2-Chloro-4-{[(2-chloro-4-fluoro-benzenesulfonyl)-(3′-cyano-biphenyl-4-ylmethyl)-amino]-methyl}-phenyl)-difluoro-methyl]-phosphonic acid]

Row | Compound | IC50
19 | {[4-(difluorophosphonomethyl)-3-chlorophenyl]methyl}{[2-(3-ethylphenyl)phenyl]methyl}[(2-methoxyphenyl)sulfonyl]amine [Compound 196] | 0.1 to 0.249 µM
20 | Methyl 5-{4-[({[4-(difluorophosphonomethyl)-3-chlorophenyl]methyl}[(2-methoxyphenyl)sulfonyl]amino)methyl]phenyl}-2-methoxybenzoate [Compound 205] | 0.1 to 0.249 µM
21 | [(2-Chloro-4-{[(4′-cyano-biphenyl-4-ylmethyl)-(2-methoxy-benzenesulfonyl)-amino]-methyl}-phenyl)-difluoro-methyl]-phosphonic acid [Compound 157] | 0.1 to 0.249 µM
22 | Methyl 2-(3-{4-[({[4-(difluorophosphonomethyl)-3-chlorophenyl]methyl}[(2-methoxyphenyl)sulfonyl]amino)methyl]phenyl}phenyl)acetate [Compound 191] | < 0.099 µM
23 | {[4-(difluorophosphonomethyl)-3-chlorophenyl]methyl}[(2-methoxyphenyl)sulfonyl](3-piperidylmethyl)amine [Compound 209] | 2.5 to 25 µM
